# Laboratory results from US7696246B2 (Ligand Pharmaceuticals Incorporated, priority 1999, dated 2010).
# Where two headings read alike, the source gives them in different places.
# Legend:
# human AR [1] = biological target: T1, human AR (Homo sapiens, UniProt P10275); assay: Co-transfection assay, AR antagonist activity (CV-1 cells, in presence of DHT); assay type: cell-based; conditions: for AR Antagonist CV-1 Cells Efficacy (%): percent maximal inhibition, DHT at its EC50
# T1 sequence (P10275 1-920): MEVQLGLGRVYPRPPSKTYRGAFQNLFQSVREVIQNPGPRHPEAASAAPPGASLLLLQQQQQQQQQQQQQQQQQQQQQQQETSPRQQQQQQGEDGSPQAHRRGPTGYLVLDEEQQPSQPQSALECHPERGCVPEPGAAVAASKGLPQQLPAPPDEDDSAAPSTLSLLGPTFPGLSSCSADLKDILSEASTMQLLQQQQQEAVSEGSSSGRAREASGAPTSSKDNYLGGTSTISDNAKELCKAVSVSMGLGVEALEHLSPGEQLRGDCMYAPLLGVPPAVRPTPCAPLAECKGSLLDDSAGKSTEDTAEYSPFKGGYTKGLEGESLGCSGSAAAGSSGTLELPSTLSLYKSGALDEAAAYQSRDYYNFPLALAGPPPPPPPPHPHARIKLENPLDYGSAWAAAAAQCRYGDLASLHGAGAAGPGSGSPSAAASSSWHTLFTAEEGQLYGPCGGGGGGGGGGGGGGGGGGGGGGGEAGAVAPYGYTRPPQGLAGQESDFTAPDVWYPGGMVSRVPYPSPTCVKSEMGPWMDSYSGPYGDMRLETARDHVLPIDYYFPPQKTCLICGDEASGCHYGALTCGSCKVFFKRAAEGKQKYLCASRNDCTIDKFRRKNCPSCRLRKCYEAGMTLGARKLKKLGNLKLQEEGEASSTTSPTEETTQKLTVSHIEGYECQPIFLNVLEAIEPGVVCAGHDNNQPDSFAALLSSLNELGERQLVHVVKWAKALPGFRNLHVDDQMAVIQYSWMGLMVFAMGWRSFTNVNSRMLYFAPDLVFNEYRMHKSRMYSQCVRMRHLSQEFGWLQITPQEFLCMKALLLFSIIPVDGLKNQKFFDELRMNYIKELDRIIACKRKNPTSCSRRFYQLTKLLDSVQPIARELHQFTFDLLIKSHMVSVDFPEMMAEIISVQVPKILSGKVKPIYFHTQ
# human AR [2] = biological target: T1, human AR; assay: AR whole cell competitive binding assay (COS-1 cells, 3H-DHT); conditions: 1 nM 3H-DHT, Cheng-Prusoff
# human AR [3] = biological target: T1, human AR; assay: Co-transfection assay, AR agonist activity (CV-1 cells, MTV-LUC reporter); assay type: cell-based; conditions: CV-1 cells; for EC50: agonist potency EC50; for AR Agonist CV-1 Cells Efficacy (%): percent maximal response relative to reference agonist DHT
# [4] = read-out: AR Antagonist CV-1 Cells Potency
SMILES,AR Antagonist CV-1 Cells Efficacy (%) (human AR [1]),IC50 (human AR [1]; [4]) [nM],Ki (human AR [2]) [nM],EC50 (human AR [3]) [nM],AR Agonist CV-1 Cells Efficacy (%) (human AR [3]),IC50 (human AR [1]) [nM]
"COC[C@H]1CCCN1c1ccc2[nH]c(=O)cc(C(F)(F)F)c2c1 [Compound 423, (R)-6-(2-Methoxymethyl-1-pyrrolidino)-4-trifluoromethyl-2(1H)-quinolinone]","na (na = not active (i.e. efficacy of <20 and potency of >10,000))",> 10000,22,86,57,
"CC1(C)OC(=O)Nc2ccc(N(CC(F)(F)F)CC(F)(F)F)cc21 [Compound 490, 1,4-Dihydro-4,4-dimethyl-6-(bis-N,N-2,2,2-trifluoroethyl)amino-1,3-benzo [d-]oxazin-2-one]","na (na = not active (i.e. efficacy of <20 and potency of >10,000))",> 10000,12,12,113,
"O=c1cc(C(F)(F)F)c2cc(N3CCCc4ccccc43)ccc2[nH]1 [Compound 348, 6-(1-Tetrahydroquinolino)-4-trifluoromethyl-2(1H)-quinolinone]",81%,24,62,> 10000,,
"CS(=O)(=O)N(CC(F)(F)F)c1ccc2[nH]c(=O)cc(C(F)(F)F)c2c1 [Compound 295, 6-(N-2,2,2-Trifluoroethyl-N-methylsufonyl)amino-4-trifluoromethyl-2(1H)-quinolinone]",49%,3.6,86,50,30,
"CCC(CC)c1ccc2[nH]c(=O)cc(C(F)(F)F)c2c1 [Compound 647, 6-(1-Ethylpropyl)-4-trifluoromethyl-2(1H)-quinolinone]",64%,31,81,233,42,
"O=c1cc(C(F)(F)F)c2cc(N(CC(Cl)Cl)CC(Cl)Cl)ccc2[nH]1 [Compound 232, 6-(bis-N-2,2-Dichloroethyl)amino-4-trifluoromethyl-2(1H)-quinolinone]","na (na = not active (i.e. efficacy of <20 and potency of >10,000))",> 10000,7.6,3.4,55,
"Cc1cccc(-c2ccc3[nH]c(=O)cc(C(F)(F)F)c3c2)c1 [Compound 738, 4-Trifluoromethyl-6-(3-methylphenyl)-2(1H)-quinolinone]",91%,27,> 1000,> 10000,,
"C=CCN(CC=C)c1ccc2[nH]c(=O)cc(C(F)(F)F)c2c1 [Compound 280, 6-Diallylamino-4-trifluoromethyl-2(1H)-quinolinone]","na (na = not active (i.e. efficacy of <20 and potency of >10,000))",> 10000,2.4,2.2,78,
"Nc1cc2[nH]c(=O)cc(C(F)(F)F)c2cc1OCC(F)(F)F [Compound 571, 7-Amino-6-(2,2,2-trifluoroethoxy)-4-trifluoromethyl-2(1H)-quinolinone]",69%,14,71,> 10000,,
"CCCN(CC(F)(F)F)c1ccc2[nH]c(=O)cc(C)c2c1 [Compound 374, 6-(N-Propyl-N-2,2,2-trifluoroethyl)amino-4-methyl-2(1H)-quinolinone]","na (na = not active (i.e. efficacy of <20 and potency of >10,000))",> 10000,6.2,2.2,77,
"C[C@@H]1C=C[C@H](C)N1c1ccc2[nH]c(=O)cc(C(F)(F)F)c2c1 [Compound 332, 6-(2,5-cis-Dimethyl-1-pyrrolino)-4-trifluoromethyl-2(1H)-quinolinone]","na (na = not active (i.e. efficacy of <20 and potency of >10,000))",> 10000,19,14,121,
"O=c1cc(C(F)(F)F)c2cc(N3CCCC[C@H]3CCl)ccc2[nH]1 [Compound 432, (+)S-6-(2-Chloromethyl-1-piperidino)-4-trifluoromethyl-2(1H)-quinolinone]","na (na = not active (i.e. efficacy of <20 and potency of >10,000))",> 10000,32,8,96,
"CC(C)c1ccc2[nH]c(=O)cc(C(F)(F)F)c2c1 [Compound 615, 6-Isopropyl-4-trifluoromethyl-2(1H)-quinolinone]",82%,48,56,2800,23,
"O=c1[nH]c2cc(NC3CCCC3)ccc2c(C(F)(F)F)c1F [Compound 536, 3-Fluoro-7-cyclopentylamino-4-trifluoromethyl-2(1H)-quinolinone]",76%,28,188,> 10000,,
"O=C1C=C(c2ccc3[nH]c(=O)cc(C(F)(F)F)c3c2)CCC1 [Compound 655, 6-(3-Oxo-1-)cyclohexenyl-4-trifluoromethyl-2(1H)-quinolinone]",70%,70,> 1000,> 10000,,
"CC1(C)CC2CC(C)(CN2c2ccc3[nH]c(=O)cc(C(F)(F)F)c3c2)C1 (racemic) [Compound 350, (±)-6-(1,3,3-Trimethyl-6-azabicyclo[3.2.1]octanyl-6-)-4-trifluoromethyl-2(1H)-quinolinone]","na (na = not active (i.e. efficacy of <20 and potency of >10,000))",> 10000,165,29,73,
"CSCC1CCCCN1c1ccc2[nH]c(=O)cc(C(F)(F)F)c2c1 (racemic) [Compound 426, (±)-6-(2-Thiomethoxymethyl-1-piperidino)-4-trifluoromethyl-2(1H)-quinolinone]","na (na = not active (i.e. efficacy of <20 and potency of >10,000))",> 10000,28,45,93,
"CCCC1CCC(CCC)N1c1ccc2[nH]c(=O)cc(C(F)(F)F)c2c1 (racemic) [Compound 365, (±)-6-(2,5-trans-Dipropyl-1-pyrrolidino)-4-trifluoromethyl-2(1H)-quinolinone]",43%,14,124,55,36,
"C[C@@H]1CC[C@H](C)N1c1ccc2[nH]c(=O)cc(C(F)(F)F)c2c1 [Compound 328, 6-(2,5-cis-Dimethyl-1-pyrrolidino)-4-trifluoromethyl-2(1H)-quinolinone]","na (na = not active (i.e. efficacy of <20 and potency of >10,000))",> 10000,48,1.7,93,
"CC(C)Nc1ccc2c(C(F)(F)F)c(F)c(=O)[nH]c2c1 [Compound 535, 3-Fluoro-7-isopropylamino-4-trifluoromethyl-2(1H)-quinolinone]",76%,60,> 1000,> 10000,,
"O=c1cc(C(F)(F)F)c2cc(N3CCCCC3CCOCc3ccccc3)ccc2[nH]1 (racemic) [Compound 445, (±)-6-(2-Benzyloxyethyl-1-piperidino)-4-trifluoromethyl-2(1H)-quinolinone]","na (na = not active (i.e. efficacy of <20 and potency of >10,000))",,5.8,26,104,> 10000
"Cn1c(=O)cc(C(F)(F)F)c2ccc(NCC(F)(F)F)cc21 [Compound 532, 1-Methyl-7-(2,2,2-trifluoromethyl)amino-4-trifluoromethyl-2(1H)-quinolinone]",85%,73,159,> 10000,,
"O=c1cc(C(F)(F)F)c2cc(N3CCc4ccccc43)ccc2[nH]1 [Compound 347, 6-(1-Indolino)-4-trifluoromethyl-2(1H)-quinolinone]",89%,59,970,> 10000,,
